Assay results: BindingDB's records for doi:10.1021/jm00043a010 (University of South Florida, 1994)

Target: Adenosine receptor A1 (Mesocricetus auratus)
Experiment: Inhibition of specific binding of [3H]CPX to the A1 adenosine receptor in DDT1 MF-2 (DDT) cells.

| Structure (SMILES) | IC50 |
| --- | --- |
| CCCn1c(=O)c2[nH]c(CNC(=O)c3ccccc3)nc2n(CCC)c1=O [N-(2,6-Dioxo-1,3-dipropyl-2,3,6,7-tetrahydro-1H-purin-8-ylmethyl)-benzamide] | 6.3 µM |
| CCCn1c(=O)c2[nH]c(-c3ccc(Cl)c([N+](=O)[O-])c3)nc2n(CCC)c1=O [8-(4-Chloro-3-nitro-phenyl)-1,3-dipropyl-3,7-dihydro-purine-2,6-dione] | 7 µM |
| O=C(OCCCn1c(=O)c2[nH]c(C3CCCC3)nc2n(CCCOC(=O)c2ccc(S(=O)(=O)F)cc2)c1=O)c1ccc(S(=O)(=O)F)cc1 [8-cyclopentyl-1,3-di[3-(4-fluorosulfonylphenylcarbonyloxy)propyl]-2,6-dioxo-2,3,6,7-tetrahydro-1H-purine] | 3.5 µM |
| CCCn1c(=O)c2[nH]c(CCNC(=O)CBr)nc2n(CCC)c1=O [2-Bromo-N-[2-(2,6-dioxo-1,3-dipropyl-2,3,6,7-tetrahydro-1H-purin-8-yl)-ethyl]-acetamide] | 4 µM |
| CCCn1c(=O)c2[nH]c(CCCNC(=O)c3cccc(S(=O)(=O)F)c3)nc2n(CCC)c1=O [3-[3-(2,6-Dioxo-1,3-dipropyl-2,3,6,7-tetrahydro-1H-purin-8-yl)-propylcarbamoyl]-benzenesulfonyl fluoride] | 2.6 µM |
| CCCn1c(=O)c2[nH]c(NC(=O)c3ccc(S(=O)(=O)F)cc3)nc2n(CCC)c1=O [4-(2,6-Dioxo-1,3-dipropyl-2,3,6,7-tetrahydro-1H-purin-8-ylcarbamoyl)-benzenesulfonyl fluoride] | 4.2 µM |
| CCCn1c(=O)c2[nH]c(NC(=O)c3cccc(S(=O)(=O)F)c3)nc2n(CCC)c1=O [3-(2,6-Dioxo-1,3-dipropyl-2,3,6,7-tetrahydro-1H-purin-8-ylcarbamoyl)-benzenesulfonyl fluoride] | 3.5 µM |
| CCCn1c(=O)c2[nH]c(C3CCCC3)nc2n(CCCOC(=O)c2cccc(S(=O)(=O)F)c2)c1=O [3-Fluorosulfonyl-benzoic acid 3-(8-cyclopentyl-2,6-dioxo-1-propyl-1,2,6,7-tetrahydro-purin-3-yl)-propyl ester] | 0.02 µM |
| CCCn1c(=O)c2[nH]c(CCCCCN3C(=O)C=CC3=O)nc2n(CCC)c1=O [8-[5-(2,5-Dioxo-2,5-dihydro-pyrrol-1-yl)-pentyl]-1,3-dipropyl-3,7-dihydro-purine-2,6-dione] | 2.2 µM |
| CCCn1c(=O)c2[nH]c(C3CCC(OC(=O)c4ccc(S(=O)(=O)F)cc4)C3)nc2n(CCC)c1=O (centres undefined) [4-Fluorosulfonyl-benzoic acid 3-(2,6-dioxo-1,3-dipropyl-2,3,6,7-tetrahydro-1H-purin-8-yl)-cyclopentyl ester] | 0.06 µM |
| CCCn1c(=O)c2[nH]c(CCCCCNC(=O)CBr)nc2n(CCC)c1=O [2-Bromo-N-[5-(2,6-dioxo-1,3-dipropyl-2,3,6,7-tetrahydro-1H-purin-8-yl)-pentyl]-acetamide] | 1.2 µM |
| CCCn1c(=O)c2[nH]c(CNC(=O)CBr)nc2n(CCC)c1=O [2-Bromo-N-(2,6-dioxo-1,3-dipropyl-2,3,6,7-tetrahydro-1H-purin-8-ylmethyl)-acetamide] | 11 µM |
| CCCn1c(=O)c2[nH]c(CNC(=O)c3ccc(S(=O)(=O)F)cc3)nc2n(CCC)c1=O [4-[(2,6-Dioxo-1,3-dipropyl-2,3,6,7-tetrahydro-1H-purin-8-ylmethyl)-carbamoyl]-benzenesulfonyl fluoride] | 2 µM |
| CCCn1c(=O)c2[nH]c(CCNC(=O)c3ccc(S(=O)(=O)F)cc3)nc2n(CCC)c1=O [4-[2-(2,6-Dioxo-1,3-dipropyl-2,3,6,7-tetrahydro-1H-purin-8-yl)-ethylcarbamoyl]-benzenesulfonyl fluoride] | 0.7 µM |
